The term melting point denotes the temperature of the solid-liquid transition. For the molecule `OC[C@H]1O[C@@H](n2cnc3c(N[C@H]4CCN(c5ccccn5)C4)ncnc32)[C@H](O)[C@@H]1O` [Example 15, (2R,3R,4S,5R)-5-hydroxymethyl-2-[6-(1-pyridin-2-ylpyrrolidin-3(S)-ylamino]-purin-9-yl]tetrahydrofuran-3,4-diol], the melting point lay within 193 to 195 °C.
The result for `COC[C@H]1C[C@@H](n2cnc3c(N[C@H]4CCN(Cc5ccccc5)C4)ncnc32)[C@H](O)[C@@H]1O` [Example 60, (1R,2S,3R,5R)-3-[6-(1-benzyl-pyrrolidin-3(S)-ylamino)purin-9-yl]-5-methoxymethylcyclopentane-1,2-diol] reads 95 to 96 °C.
The result for `COC[C@H]1C[C@@H](n2cnc3c(N[C@H]4CCN(c5ccccc5)C4)ncnc32)[C@H](O)[C@@H]1O` [Example 58, (1R,2S,3R,5R)-5-methoxymethyl-3-[6-[1-phenylpyrrolidin-3-(S)-ylamino]-purin-9-yl]cyclopentan-1,2-diol] reads 106 °C; that for `COC[C@H]1C[C@@H](n2cnc3c(N[C@H]4CCN(c5cc(OC)ncn5)C4)ncnc32)[C@H](O)[C@@H]1O` [Example 48, (1R,2S,3R,5R)-5-methoxymethyl-3-[6-[1-(6-methoxypyrimidin-4-yl)pyrrolidin-3(S)-ylamino]-purin-9-yl]cyclopentane-1,2-diol], 118 to 120 °C; that for `OC[C@H]1O[C@@H](n2cnc3c(NC4CCCN(c5ccc(C(F)(F)F)cn5)C4)ncnc32)[C@H](O)[C@@H]1O` (stereo partly drawn) [Example 13, (2R,3R,4S,5R)-5-hydroxymethyl-2-[6-(5′-trifluoromethyl-3,4,5,6-tetrahydro-2H-[1,2′]-bipyridinyl-3-ylamino)-purin-9-yl]tetrahydrofuran-3,4-diol], 113 to 116 °C.
The figure for `OC[C@H]1O[C@@H](n2cnc3c(N[C@H]4CCN(c5ccc(Cl)cc5)C4)ncnc32)[C@H](O)[C@@H]1O` [Example 16, (2R,3R,4S,5R)-5-hydroxymethyl-2-[6-[1-(4-chlorophenyl)-pyrrolidin-3(S)-ylamino]-purin-9-yl]-tetrahydrofuran-3,4-diol] is 121 to 124 °C; for `O=[N+]([O-])c1ccc(N2CC[C@H](Nc3ncnc4c3ncn4[C@@H]3O[C@H](CO)[C@@H](O)[C@H]3O)C2)cc1` [Example 12, (2R,3R,4S,5R)-5-hydroxymethyl-2-(6-(1-(4-nitrophenyl)-pyrrolidin-3(S)-ylamino)-purin-9-yl) tetrahydrofuran-3,4-diol] it is 230 to 232 °C.
As for `OC[C@H]1O[C@@H](n2cnc3c(N[C@H]4CCN(c5cc(C(F)(F)F)ccn5)C4)ncnc32)[C@H](O)[C@@H]1O` [Example 10, (2R,3R,4S,5R)-5-hydroxymethyl-2-[6-[1-(4-trifluoromethylpyridin-2-yl)-pyrrolidin-3(S)-ylamino]-purin-9-yl]tetrahydrofuran-3,4-diol], the melting point was 187 to 190 °C.
The result for `Cc1ccc(N2CC[C@H](Nc3ncnc4c3ncn4[C@@H]3O[C@H](CO)[C@@H](O)[C@H]3O)C2)nc1` [Example 17, (2R,3R,4S,5R)-5-hydroxymethyl-2-[6-[1-(5-methylpyridin-2-yl)-pyrrolidin-3(S)-ylamino]-purin-9-yl]tetrahydrofuran-3,4-diol] reads 164 to 166 °C; that for `OC[C@H]1C[C@@H](n2cnc3c(N[C@H]4CCN(c5cnc6ccccc6c5)C4)ncnc32)[C@H](O)[C@@H]1O` [Example 36, (1R,2S,3R,5R)-5-hydroxymethyl-3-[6-[1-(quinolin-3-yl)pyrrolidin-3(S)-ylamino]-purin-9-yl]cyclopentane-1,2-diol], 135 to 138 °C; that for `COC[C@H]1O[C@@H](n2cnc3c(N[C@H]4CCN(c5ccc(C(F)(F)F)cn5)C4)ncnc32)[C@H](O)[C@@H]1O` [Example 23, (2R,3R,4S,5R) -5-methoxymethyl-2-[6-[1-(5-trifluoromethylpyridin-2-yl)-pyrrolidin-3(S)-ylamino]-purin-9-yl]tetrahydrofuran-3,4-diol], 198 to 200 °C.
The figure for `CC(C)OC[C@H]1C[C@@H](n2cnc3c(N[C@H]4CCN(c5ccc(C(F)(F)F)cn5)C4)ncnc32)[C@H](O)[C@@H]1O` [Example 49, (1R,2S,3R,5R)-5-isopropoxymethyl-3-[6-[1-(5-trifluoromethylpyridin2-yl)pyrrolidin-3(S)-ylamino]-purin-9-yl]cyclopentane-1,2-diol] is 157 to 158 °C; for `OC[C@H]1O[C@@H](n2cnc3c(N[C@@H]4CCN(c5ccc(C(F)(F)F)cn5)C4)ncnc32)[C@H](O)[C@@H]1O` (hydrate or solvate) [Example 4, (2R,3R,4S,5R)-5-hydroxymethyl-2-[6-[1-(5-trifluoromethylpyridin-2-yl)-pyrrolidin-3(R)-ylamino]purin-9-yl]tetrahydrofuran-3,4-diol] it is 166 to 170 °C; for `CSc1ccc(N2CC[C@H](Nc3ncnc4c3ncn4[C@@H]3O[C@H](CO)[C@@H](O)[C@H]3O)C2)nc1` [Example 19, (2R,3R,4S,5R)-5-hydroxymethyl-2-[6-[1-(5-methylmercaptopyridin-2-yl)-pyrrolidin-3(S)-ylamino]-purin-9-yl]tetrahydrofuran-3,4-diol] it is 231 to 233 °C.
In the case of `CC[C@@H](C)NC(=O)[C@H]1C[C@@H](n2cnc3c(N[C@H]4CCN(c5ccc(C(F)(F)F)cn5)C4)ncnc32)[C@H](O)[C@@H]1O` [Example 62, (1S,2R,3S,4R)-2,3-dihydroxy-4-{6-[1-(5-trifluoromethyl-pyridin-2-yl)-pyrrolidin-3(S)-ylamino]-purin-9-yl}-cyclopentanecarboxylic acid-1(R)-methylpropylamide], the melting point is 206 to 212 °C (dec.).
For the molecule `OC[C@H]1C[C@@H](n2cnc3c(N[C@H]4CCN(Cc5ccccc5)C4)ncnc32)[C@H](O)[C@@H]1O` [Example 59, (1R,2S,3R,5R)-3-[6-(1-benzyl-pyrrolidin-3(S)-ylamino)purin-9-yl]-5-hydroxymethylcyclopentane-1,2-diol], the melting point was 100 to 102 °C.
The figure for `OC[C@H]1O[C@@H](n2cnc3c(N[C@H]4CCN(c5ccc(Cl)cn5)C4)ncnc32)[C@H](O)[C@@H]1O` [Example 8, (2R,3R,4S,5R)-5-hydroxymethyl-2-[6-[1-(5-chloropyridin-2-yl)-pyrrolidin-3(S)-ylamino]-purin-9-yl]-tetrahydrofuran-3,4-diol] is 154 to 156 °C.
The result for `OC[C@H]1C[C@@H](n2cnc3c(N[C@@H]4CCNC4)ncnc32)[C@H](O)[C@@H]1O` [Example 28, (1R,2S,3R,5R)-5-hydroxymethyl-3-[6-((3R)-pyrrolidin-3-ylamino)-purin-9-yl]cyclopentane-1,2-diol] reads 166 °C (dec.); that for `OC[C@H]1C[C@@H](n2cnc3c(N[C@H]4CCN(c5cc(Cl)ncn5)C4)ncnc32)[C@H](O)[C@@H]1O` [Example 45, (1R,2S,3R,5R)-3-[6-[1-(6-chloropyrimidin-4-yl)pyrrolidin-3(S)-ylamino]-purin-9-yl]-5-hydroxymethylcyclopentane-1,2-diol], 180 to 182 °C; that for `O=[N+]([O-])c1ccc(N2CCC(Nc3ncnc4c3ncn4[C@@H]3C[C@H](CO)[C@@H](O)[C@H]3O)CC2)cc1` [Example 25, (1R,2S,3R,5R)-5-hydroxymethyl-3-[6-[1-(4-nitrophenyl)piperidin-4-ylamino]-purin-9-yl]cyclopentane-1,2-diol], 126 to 128 °C.

Source of the values: patent US20030176390A1, “Methods of treating insulin resistance syndrome and diabetes” (priority 2001, published 2003).
